Measurements from ChEMBL document CHEMBL5055665, “Discovery of the Triazolo[1,5-a]Pyrimidine-Based Derivative WS-898 as a Highly Efficacious and Orally Bioavailable ABCB1 Inhibitor Capable of Overcoming Multidrug Resistance” (J Med Chem, 2021).
pIC50: −log10 of the molar value.

Legend:
SW-620 [1] = test: Reversal of resistance to paclitaxel-induced cytotoxicity in human SW-620/AD300 cells assessed as reduction in paclitaxel IC50 at 5 uM preincubated for 4 hrs followed by paclitaxel addition and measured after 72 hrs by MTT assay (reference value: 4.23 +/- 0.50 uM); format: functional, cell-based
SW-620 [2] = test: Reversal of resistance to paclitaxel-induced cytotoxicity in human SW-620/AD300 cells assessed as reversal fold at 5 uM preincubated for 4 hrs followed by paclitaxel addition and measured after 72 hrs by MTT assay relative to paclitaxel; format: functional; settings: time 76 hrs
SW-620 [3] = test: Reversal of resistance to paclitaxel-induced cytotoxicity in human SW-620/AD300 cells assessed as reduction in paclitaxel IC50 at 20 uM preincubated for 4 hrs followed by paclitaxel addition and measured after 72 hrs by MTT assay (reference value: 4.23 +/- 0.50 uM); format: functional, cell-based
SW-620 [4] = test: Reversal of resistance to paclitaxel-induced cytotoxicity in human SW-620/AD300 cells assessed as reversal fold at 20 uM preincubated for 4 hrs followed by paclitaxel addition and measured after 72 hrs by MTT assay relative to paclitaxel; format: functional; settings: time 76 hrs
SW-620 [5] = test: Reversal of resistance to paclitaxel-induced cytotoxicity in human SW-620/AD300 cells assessed as reduction in paclitaxel IC50 at 10 uM preincubated for 4 hrs followed by paclitaxel addition and measured after 72 hrs by MTT assay (reference value: 4.23 +/- 0.50 uM); format: functional, cell-based
SW-620 [6] = test: Reversal of resistance to paclitaxel-induced cytotoxicity in human SW-620/AD300 cells assessed as reversal fold at 10 uM preincubated for 4 hrs followed by paclitaxel addition and measured after 72 hrs by MTT assay relative to paclitaxel; format: functional; settings: time 76 hrs
SW-620 [7] = test: Reversal of resistance to paclitaxel-induced cytotoxicity in human SW-620/AD300 cells assessed as reduction in paclitaxel IC50 at 1 uM preincubated for 4 hrs followed by paclitaxel addition and measured after 72 hrs by MTT assay (reference value: 4.23 +/- 0.50 uM); format: functional, cell-based
SW-620 [8] = test: Reversal of resistance to paclitaxel-induced cytotoxicity in human SW-620/AD300 cells assessed as reversal fold at 1 uM preincubated for 4 hrs followed by paclitaxel addition and measured after 72 hrs by MTT assay relative to paclitaxel; format: functional; settings: time 76 hrs
SW-620 [9] = test: Reversal of resistance to paclitaxel-induced cytotoxicity in human SW-620/AD300 cells assessed as reduction in paclitaxel IC50 at 2 uM preincubated for 4 hrs followed by paclitaxel addition and measured after 72 hrs by MTT assay (reference value: 4.23 +/- 0.50 uM); format: functional, cell-based
SW-620 [10] = test: Reversal of resistance to paclitaxel-induced cytotoxicity in human SW-620/AD300 cells assessed as reversal fold at 2 uM preincubated for 4 hrs followed by paclitaxel addition and measured after 72 hrs by MTT assay relative to paclitaxel; format: functional; settings: time 76 hrs
SW-620 [11] = test: Reversal of resistance to paclitaxel-induced cytotoxicity in human SW-620/AD300 cells assessed as reversal fold at 4 uM preincubated for 4 hrs followed by paclitaxel addition and measured after 72 hrs by MTT assay relative to paclitaxel; format: functional; settings: time 76 hrs
SW-620 [12] = test: cells; settings: Homo sapiens

Structure (SMILES): COc1ccc(CSc2nc3nc(C)cc(Nc4ccc(C(=O)/C=C/c5ccc6ccccc6c5)cc4)n3n2)cc1
- pIC50 (SW-620 [1]): 6.60
- fold change (FC) (SW-620 [2]): 16.92

Structure (SMILES): CC(=O)c1ccc(Nc2cc(C)nc3nc(SCc4nc5ccccc5[nH]4)nn23)cc1
- pIC50 (SW-620 [3]): 5.79
- fold change (FC) (SW-620 [4]): 2.6

Structure (SMILES): O=C(/C=C/c1ccc2ccccc2c1)c1ccc(Nc2cc(-c3ccccc3)nc3ncnn23)cc1
- pIC50 (SW-620 [5]): 6.10
- fold change (FC) (SW-620 [6]): 5.35

Structure (SMILES): Cc1cc(Nc2ccc(C(=O)/C=C/c3ccc(Br)cn3)cc2)n2nc(SCc3nc4ccccc4[nH]3)nc2n1
- pIC50 (SW-620 [7]): 6.96
- fold change (FC) (SW-620 [8]): 39.09

Structure (SMILES): Cc1cc(Nc2ccc(C(=O)/C=C/c3ccc4ccccc4c3)cc2)n2nc(SCC(=O)c3ccccc3)nc2n1
- pIC50 (SW-620 [9]): 6.72
- fold change (FC) (SW-620 [10]): 22.26

Structure (SMILES): Cc1cc(Nc2ccc(C(=O)/C=C/c3ccccc3Cl)cc2)n2nc(SCc3nc4ccccc4[nH]3)nc2n1
- pIC50 (SW-620 [9]): 6.17
- fold change (FC) (SW-620 [10]): 6.22

Structure (SMILES): Cc1cc(Nc2ccc(C(=O)/C=C/c3ccc4ccccc4c3)cc2)n2nc(SCc3ccccc3[N+](=O)[O-])nc2n1
- pIC50 (SW-620 [1]): 6.02
- fold change (FC) (SW-620 [2]): 4.36

Structure (SMILES): Cc1cc(Nc2ccc(C(=O)/C=C/c3ccc4ccccc4c3)cc2)n2nc(SCc3ccc(C(F)(F)F)cc3)nc2n1
- pIC50 (SW-620 [5]): 5.84
- fold change (FC) (SW-620 [6]): 2.92

Structure (SMILES): Cc1cc(Nc2ccc(C(=O)/C=C/c3ccc(-n4cccn4)cc3)cc2)n2nc(SCc3nc4ccccc4[nH]3)nc2n1
- pIC50 (SW-620 [9]): 6.47
- fold change (FC) (SW-620 [10]): 12.44

Structure (SMILES): COc1ccc(/C=C/C(=O)c2ccc(Nc3cc(C)nc4nc(SCc5nc6ccccc6[nH]5)nn34)cc2)cc1F
- pIC50 (SW-620 [9]): 6.85
- fold change (FC) (SW-620 [10]): 30.21

Structure (SMILES): Cc1cc(Nc2ccc(C(=O)/C=C/c3ccc4ccccc4c3)cc2)n2nc(SCc3ccc([N+](=O)[O-])cc3)nc2n1
- pIC50 (SW-620 [1]): 5.95
- fold change (FC) (SW-620 [2]): 3.74

Structure (SMILES): Cc1cc(Nc2ccc(C(=O)/C=C/c3ccc(Br)cc3)cc2)n2nc(SCc3nc4ccccc4[nH]3)nc2n1
- pIC50 (SW-620 [9]): 6.54
- fold change (FC) (SW-620 [10]): 14.59

Structure (SMILES): C#CCSc1nc2nc(C)cc(Nc3ccc(C(=O)/C=C/c4ccc5ccccc5c4)cc3)n2n1
- fold change (FC) (SW-620 [11]): 4.86
- pIC50 (SW-620 [12]): 6.06

Structure (SMILES): Cc1cc(Nc2ccc(C(=O)/C=C/c3cccs3)cc2)n2nc(SCc3nc4ccccc4[nH]3)nc2n1
- pIC50 (SW-620 [9]): 6.09
- fold change (FC) (SW-620 [10]): 5.15

Structure (SMILES): Cc1cc(Nc2ccc(C(=O)/C=C/c3ccc4ccccc4c3)cc2)n2nc(SCc3c(Cl)cccc3Cl)nc2n1
- fold change (FC) (SW-620 [11]): 6.13
- pIC50 (SW-620 [12]): 6.16

Structure (SMILES): Cc1cc(Nc2ccc(C(=O)/C=C/c3ccc4ccccc4c3)cc2)n2nc(SCc3ccc(F)cc3)nc2n1
- pIC50 (SW-620 [1]): 6.49
- fold change (FC) (SW-620 [2]): 13.22

Structure (SMILES): Cc1cc(Nc2ccc(C(=O)/C=C/c3ccccc3)cc2)n2nc(SCc3nc4ccccc4[nH]3)nc2n1
- pIC50 (SW-620 [9]): 6.89
- fold change (FC) (SW-620 [10]): 32.54

Structure (SMILES): O[C@@H](COc1cccc2ncccc12)CN1CCN([C@@H]2c3ccccc3[C@@H]3[C@H](c4ccccc42)C3(F)F)CC1 [ZOSUQUIDAR]
- pIC50 (SW-620 [9]): 7.23
- fold change (FC) (SW-620 [10]): 71.1

Structure (SMILES): COc1cc(OC)c(/C=C/C(=O)c2ccc(Nc3cc(C)nc4nc(SCc5nc6ccccc6[nH]5)nn34)cc2)c(OC)c1
- pIC50 (SW-620 [7]): 6.59
- fold change (FC) (SW-620 [8]): 16.27

Structure (SMILES): Cc1ccc(CSc2nc3nc(C)cc(Nc4ccc(C(=O)/C=C/c5ccc6ccccc6c5)cc4)n3n2)cc1
- pIC50 (SW-620 [1]): 6.06
- fold change (FC) (SW-620 [2]): 4.81

Structure (SMILES): Cc1cc(Nc2ccc(C(=O)/C=C/c3ccccc3F)cc2)n2nc(SCc3nc4ccccc4[nH]3)nc2n1
- pIC50 (SW-620 [9]): 6.60
- fold change (FC) (SW-620 [10]): 16.92

Structure (SMILES): Cc1cc(Nc2ccc(C(=O)/C=C/c3ccc(OC(F)(F)F)c(OC(F)(F)F)c3)cc2)n2nc(SCc3nc4ccccc4[nH]3)nc2n1
- pIC50 (SW-620 [7]): 6.92
- fold change (FC) (SW-620 [8]): 35.25

Structure (SMILES): Cc1cc(Nc2ccc(C(=O)/C=C/c3ccc4ccccc4c3)cc2)n2nc(SCc3ccc(Br)cc3)nc2n1
- pIC50 (SW-620 [1]): 6.43
- fold change (FC) (SW-620 [2]): 11.43

Structure (SMILES): Cc1cc(Nc2ccc(C(=O)/C=C/c3ccc(OC(F)(F)F)cc3)cc2)n2nc(SCc3nc4ccccc4[nH]3)nc2n1
- pIC50 (SW-620 [9]): 6.66
- fold change (FC) (SW-620 [10]): 19.5
